Source: patent US20250163104A1, “MACROCYCLIC IMMUNOMODULATORS” (priority 2021, published 2025)
Where a SMILES comes first, the peptide text is derived from it. Bridges are numbered along the chain shown (N, C = ends). [ ]: non-standard residue; d: D form. Bip = N[C@@H](Cc1ccc(-c2ccccc2)cc1)C(=O)O; Orn = NCCC[C@H](N)C(=O)O; Dab = NCC[C@H](N)C(=O)O; Dap = NC[C@H](N)C(=O)O

target: T1, human PD-1 / PD-L1-Ig binding on Jurkat cell line over-expressing human PD-1 (Jurkat-PD-1) (Homo sapiens, UniProt Q15116); assay: Jurkat-PD-1 Cell Binding High-Content Screening Assay (CBA); format: cell-based; details: Jurkat-PD-1 cells, PE-labeled PD-L1-Ig 20 nM final; read-out: Jurkat HPD1_PDL1 IC50
T1 construct: expressed in transfected cells; host or cells: Jurkat
T1 sequence (Q15116 25-288): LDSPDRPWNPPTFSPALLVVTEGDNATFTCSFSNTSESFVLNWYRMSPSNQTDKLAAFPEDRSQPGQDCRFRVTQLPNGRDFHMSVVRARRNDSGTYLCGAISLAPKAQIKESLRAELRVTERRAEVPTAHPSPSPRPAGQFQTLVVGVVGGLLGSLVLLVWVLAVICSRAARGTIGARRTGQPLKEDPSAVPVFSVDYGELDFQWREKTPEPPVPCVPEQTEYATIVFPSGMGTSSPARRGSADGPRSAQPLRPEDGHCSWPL
How it was run: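 Jurkat cells over-expressing human PD-1, in DMEM/10% FCS, pre-incubated with compound 2 h at 37° C. PE-labeled human PD-L1-Ig (20 nM final) added for 1 h; cells fixed in paraformaldehyde with Hoechst 33342 nuclear stain, washed, and bound fluorescence quantified by high-content imaging.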

CC(C)C[C@@H]1NC(=O)[C@H](Cc2c[nH]c3ccccc23)NC(=O)[C@H](CC(=O)O)NC(=O)[C@H](Cc2ccc(O)cc2)NC(=O)[C@H](Cc2ccccc2)NC(=O)CSC[C@@H](C(=O)NCC(N)=O)NC(=O)[C@H]([C@@H](C)O)NC(=O)[C@H](C(C)C)NC(=O)[C@H](CC(C)C)NC(=O)[C@H](CCN)NC(=O)[C@@H](C)NC(=O)[C@H](CN)NC(=O)[C@H](C(C)C)NC(=O)[C@H](Cc2ccc(-c3ccccc3)cc2)NC1=O [Compound 1078] ({CH2CO}-FYDWL[Bip]V[Dap][dA][Dab]LVTCG-NH2; thioether N-14) and CC(C)C[C@@H]1NC(=O)[C@H](Cc2c[nH]c3ccccc23)NC(=O)[C@H](CC(=O)O)NC(=O)[C@H](Cc2ccc(O)cc2)NC(=O)[C@H](Cc2ccccc2)NC(=O)CSC[C@@H](C(=O)N[C@@H](C)C(N)=O)NC(=O)[C@H](CO)NC(=O)[C@H](C(C)C)NC(=O)[C@H](CC(C)C)NC(=O)[C@H](CCN)NC(=O)[C@@H](C)NC(=O)[C@H](CN)NC(=O)[C@H](C(C)C)NC(=O)[C@H](Cc2ccc(-c3ccccc3)cc2)NC1=O [Compound 1079] ({CH2CO}-FYDWL[Bip]V[Dap][dA][Dab]LVSCA-NH2; thioether N-14) are within 1.5-fold of each other in IC50: 40.2 nM for the first, 29.5 nM for the second.

Going from CC(C)C[C@@H]1NC(=O)[C@H](CCN)NC(=O)[C@@H](CC(C)C)NC(=O)[C@H](CCN)NC(=O)[C@H](C(C)C)NC(=O)[C@H](Cc2ccc(-c3ccccc3)cc2)NC(=O)[C@H](C(C)C)NC(=O)[C@H](Cc2c[nH]c3ccccc23)NC(=O)[C@H](CC(N)=O)NC(=O)[C@H](Cc2ccc(O)cc2)NC(=O)[C@H](CC(N)=O)NC(=O)CSC[C@@H](C(=O)N[C@@H](C)C(N)=O)NC(=O)[C@H](CO)NC(=O)[C@H](C(C)C)NC1=O [Compound 1080] ({CH2CO}-NYNWV[Bip]V[Dab][dL][Dab]LVSCA-NH2; thioether N-14) to CC(C)C[C@@H]1NC(=O)[C@H](CCN)NC(=O)[C@@H](CC(C)C)NC(=O)[C@H](CCN)NC(=O)[C@H](C(C)C)NC(=O)[C@H](Cc2ccc(-c3ccccc3)cc2)NC(=O)[C@H](C(C)C)NC(=O)[C@H](Cc2c[nH]c3ccccc23)NC(=O)[C@H](CC(N)=O)NC(=O)[C@H](Cc2ccc(O)cc2)NC(=O)[C@H](CC(N)=O)NC(=O)CSC[C@@H](C(=O)NCC(N)=O)NC(=O)[C@H](CO)NC(=O)[C@H](C(C)C)NC1=O [Compound 1083] ({CH2CO}-NYNWV[Bip]V[Dab][dL][Dab]LVSCG-NH2; thioether N-14), the IC50 falls from 47.1 nM to 16.8 nM (2.8-fold). The second is the more potent here.

CC(C)C[C@@H]1NC(=O)[C@H](CCN)NC(=O)[C@@H](CC(C)C)NC(=O)[C@H](CCCN)NC(=O)[C@H](C(C)C)NC(=O)[C@H](Cc2ccc(-c3ccccc3)cc2)NC(=O)[C@H](C(C)C)NC(=O)[C@H](Cc2c[nH]c3ccccc23)NC(=O)[C@H](CC(N)=O)NC(=O)[C@H](Cc2ccc(O)cc2)NC(=O)[C@H](CC(N)=O)NC(=O)CSC[C@@H](C(=O)NCC(N)=O)NC(=O)[C@H](CO)NC(=O)[C@H](C(C)C)NC1=O [Compound 1081] ({CH2CO}-NYNWV[Bip]V[Orn][dL][Dab]LVSCG-NH2; thioether N-14) and CC(C)C[C@@H]1NC(=O)[C@H](CCN)NC(=O)[C@@H](CC(C)C)NC(=O)[C@H](CCCCN)NC(=O)[C@H](C(C)C)NC(=O)[C@H](Cc2ccc(-c3ccccc3)cc2)NC(=O)[C@H](C(C)C)NC(=O)[C@H](Cc2c[nH]c3ccccc23)NC(=O)[C@H](CC(N)=O)NC(=O)[C@H](Cc2ccc(O)cc2)NC(=O)[C@H](CC(N)=O)NC(=O)CSC[C@@H](C(=O)NCC(N)=O)NC(=O)[C@H](CO)NC(=O)[C@H](C(C)C)NC1=O [Compound 1082] ({CH2CO}-NYNWV[Bip]VK[dL][Dab]LVSCG-NH2; thioether N-14) are within 1.5-fold of each other in IC50: 28.6 nM for the first, 41.5 nM for the second.
